Source: ChEMBL document CHEMBL3817739, “Synthesis and cytotoxic evaluation of several oleanolic aciduracil/thymine conjugates” (Medchemcomm, 2016)
Active and inactive are the calls of the source. The calls are words filed in the database; no cut-off is given here.

Experiments:
HepG2 [1] = experiment: Cytotoxicity against human HepG2 cells assessed as inhibition of cell proliferation after 72 hrs by MTT assay; format: functional, cell-based; conditions: HepG2, 72 h
A549 = experiment: Cytotoxicity against human A549 cells assessed as inhibition of cell proliferation after 72 hrs by MTT assay; format: functional, cell-based; conditions: A549, 72 h
[2] = Cytotoxicity against human BGC823 cells assessed as inhibition of cell proliferation after 72 hrs by MTT assay; format: functional, cell-based; conditions: BGC-823, 72 h
MCF7 = experiment: Cytotoxicity against human MCF7 cells assessed as inhibition of cell proliferation after 72 hrs by MTT assay; format: functional, cell-based; conditions: MCF7, 72 h
[3] = Cytotoxicity against human PC3 cells assessed as inhibition of cell proliferation after 72 hrs by MTT assay; format: functional, cell-based, PC-3; conditions: Homo sapiens, PC-3, 72 h; read-out: IC50
HepG2 [4] = experiment: Induction of morphological changes in human HepG2 cells assessed as chromatin condensation and fragmentation at 2 to 4 uM after 24 hrs by acridine orange/ethidium bromide double staining based fluorescence microscopy; format: functional, cell-based
HepG2 [5] = experiment: Induction of apoptosis in human HepG2 cells assessed as karyopyknosis and chromatin condensation at 2 to 4 uM after 24 hrs by Hoechst 33258 staining based fluorescence microscopy; format: functional, cell-based
HepG2 [6] = experiment: Induction of apoptosis in human HepG2 cells assessed as viable cells at 2 uM after 24 hrs by Annexin V-FITC/propidium iodide staining based flow cytometry (reference value: 93.2%); format: functional; conditions: HepG2, 24 h, read-out: Activity
HepG2 [7] = experiment: Induction of apoptosis in human HepG2 cells assessed as early apoptotic cells at 2 uM after 24 hrs by Annexin V-FITC/propidium iodide staining based flow cytometry (reference value: 1.36%); format: functional
HepG2 [8] = experiment: Induction of apoptosis in human HepG2 cells assessed as late apoptotic cells at 2 uM after 24 hrs by Annexin V-FITC/propidium iodide staining based flow cytometry (reference value: 2.7%); format: functional
HepG2 [9] = experiment: Induction of apoptosis in human HepG2 cells assessed as necrotic cells at 2 uM after 24 hrs by Annexin V-FITC/propidium iodide staining based flow cytometry (reference value: 2.7%); format: functional
HepG2 [10] = experiment: Induction of apoptosis in human HepG2 cells assessed as viable cells at 4 uM after 24 hrs by Annexin V-FITC/propidium iodide staining based flow cytometry (reference value: 93.2%); format: functional; conditions: HepG2, 24 h, read-out: Activity
HepG2 [11] = experiment: Induction of apoptosis in human HepG2 cells assessed as early apoptotic cells at 4 uM after 24 hrs by Annexin V-FITC/propidium iodide staining based flow cytometry (reference value: 1.36%); format: functional
HepG2 [12] = experiment: Induction of apoptosis in human HepG2 cells assessed as late apoptotic cells at 4 uM after 24 hrs by Annexin V-FITC/propidium iodide staining based flow cytometry (reference value: 2.7%); format: functional
HepG2 [13] = experiment: Induction of apoptosis in human HepG2 cells assessed as necrotic cells at 4 uM after 24 hrs by Annexin V-FITC/propidium iodide staining based flow cytometry (reference value: 2.7%); format: functional
HepG2 [14] = experiment: Cell cycle arrest in human HepG2 cells assessed as accumulation at G1 phase at 2 uM after 48 hrs by propidium iodide staining based flow cytometry (reference value: 60.65%); format: functional
HepG2 [15] = experiment: Cell cycle arrest in human HepG2 cells assessed as accumulation at G2/M phase at 2 uM after 48 hrs by propidium iodide staining based flow cytometry (reference value: 13.83%); format: functional
HepG2 [16] = experiment: Cell cycle arrest in human HepG2 cells assessed as accumulation at S phase at 2 uM after 48 hrs by propidium iodide staining based flow cytometry (reference value: 25.52%); format: functional
HepG2 [17] = experiment: Cell cycle arrest in human HepG2 cells assessed as accumulation at G1 phase at 3 uM after 48 hrs by propidium iodide staining based flow cytometry (reference value: 60.65%); format: functional
HepG2 [18] = experiment: Cell cycle arrest in human HepG2 cells assessed as accumulation at G2/M phase at 3 uM after 48 hrs by propidium iodide staining based flow cytometry (reference value: 13.83%); format: functional
HepG2 [19] = experiment: Cell cycle arrest in human HepG2 cells assessed as accumulation at S phase at 3 uM after 48 hrs by propidium iodide staining based flow cytometry (reference value: 25.52%); format: functional
HepG2 [20] = experiment: Cell cycle arrest in human HepG2 cells assessed as accumulation at G1 phase at 4 uM after 48 hrs by propidium iodide staining based flow cytometry (reference value: 60.65%); format: functional
HepG2 [21] = experiment: Cell cycle arrest in human HepG2 cells assessed as accumulation at G2/M phase at 4 uM after 48 hrs by propidium iodide staining based flow cytometry (reference value: 13.83%); format: functional
HepG2 [22] = experiment: Cell cycle arrest in human HepG2 cells assessed as accumulation at S phase at 4 uM after 48 hrs by propidium iodide staining based flow cytometry (reference value: 25.52%); format: functional
HepG2 [23] = experiment: Disruption of mitochondrial membrane potential in human HepG2 cells assessed as mitochondrial membrane potential at 2 uM after 24 hrs by Rhodamine 123 staining based flow cytometry (reference value: 86.2%); format: functional
HepG2 [24] = experiment: Disruption of mitochondrial membrane potential in human HepG2 cells assessed as mitochondrial membrane potential at 3 uM after 24 hrs by Rhodamine 123 staining based flow cytometry (reference value: 86.2%); format: functional
HepG2 [25] = experiment: Disruption of mitochondrial membrane potential in human HepG2 cells assessed as mitochondrial membrane potential at 4 uM after 24 hrs by Rhodamine 123 staining based flow cytometry (reference value: 86.2%); format: functional
HepG2 [26] = experiment: Induction of apoptosis in human HepG2 cells assessed as caspase 3 activation at 4 uM using FITC-DEVD-FMK as probe after 24 hrs by flow cytometry (reference value: 3.3%); format: functional
HepG2 [27] = experiment: Induction of apoptosis in human HepG2 cells assessed as caspase 9 activation at 4 uM using FITC-LEHD-FMK as probe after 24 hrs by flow cytometry (reference value: 4.4%); format: functional
HepG2 [28] = experiment: Disruption of mitochondrial membrane potential in human HepG2 cells after 24 hrs by Rhodamine 123 staining based flow cytometry; format: functional, cell-based

Compound: CC1(C)CC[C@]2(C(=O)OCCCCCCn3ccc(=O)[nH]c3=O)CC[C@]3(C)C(=CC[C@@H]4[C@@]5(C)CC[C@H](O)C(C)(C)[C@@H]5CC[C@]43C)[C@@H]2C1
- IC50 (HepG2 [1]): 3.98 µM
- IC50 (A549): 3.16 µM
- IC50 [2]: 1.28 µM
- IC50 (MCF7): 2.75 µM
- IC50 [3]: 0.18 µM
- Activity (HepG2 [4]): Active
- Activity (HepG2 [5]): Active
- viability at 2 µM (HepG2 [6]): 88%
- Activity (HepG2 [7]): 1.91%
- Activity (HepG2 [8]): 7.75%
- Activity (HepG2 [9]): 2.36%
- viability at 4 µM (HepG2 [10]): 76.1%
- Activity (HepG2 [11]): 1.83%
- Activity (HepG2 [12]): 17.7%
- Activity (HepG2 [13]): 4.32%
- Activity (HepG2 [14]): 92.75%
- Activity (HepG2 [15]): 0.74%
- Activity (HepG2 [16]): 6.51%
- Activity (HepG2 [17]): 88.09%
- Activity (HepG2 [18]): 1.73%
- Activity (HepG2 [19]): 10.18%
- Activity (HepG2 [20]): 82.48%
- Activity (HepG2 [21]): 3.25%
- Activity (HepG2 [22]): 14.27%
- Activity (HepG2 [23]): 77.7%
- Activity (HepG2 [24]): 67%
- Activity (HepG2 [25]): 49.4%
- Activity (HepG2 [26]): 31%
- Activity (HepG2 [27]): 27.9%
- Activity (HepG2 [28]): Dose-dependent effect
